Assay results: patent US4335127A, “Piperidinylalkyl quinazoline compounds, composition and method of use” (Janssen Pharmaceutica, N.V., priority 1979, dated 1982)

Tests used:
[1] = tested on: Caudal Artery of the Rat (effect of serotonin); experiment: Antagonistic Activity on the Effect of Serotonin on the Caudal Artery of the Rat (Test 1); conditions: serotonin 40 ng/ml; 5 minutes after adding the drug; rat caudal artery strips
Protocol: Caudal arteries from fasted male rats (210-235 g) are used in the test. Two helical strips having a length of 5-6 cm and a width of 2 mm are obtained from each artery and mounted vertically in a 100 ml organ bath containing an oxygenated Krebs-Henseleit solution. Submaximal contractions of the arterial strips are produced by adding single doses of serotonin (40 ng/ml) to the organ bath for 2 minutes with each time an interval of 10 minutes. The amplitude of the contraction is measured before and 5 minutes after adding the drug. After washing out, the agonist is added again three times in order to see whether the contraction is restored and normalized. […] In this connection the ED50 -values are the minimal concentrations of the concerned drugs which reduce the amplitude of the contraction to at least 50% of its normal value.

[2] = tested on: lesions in the glandular area of the stomach and distension of the stomach induced by compound 48/80 in rats; experiment: Gastric lesion test: lesions induced by compound 48/80 (Test 2); assay type: in vivo, rat (male, Wistar inbred strain); conditions: oral, 2 hours before compound 48/80 (1 mg/kg i.v.); stomachs inspected 4 hours after
Protocol: (§1) The shock, followed by dead, can be avoided if the rats are pretreated with a classical H 1 antagonist.
(§2) Male rats of a Wistar inbred strain, weighing 220-250 g, are starved overnight, water being available ad libitum. The test compounds are administered orally as a solution or as a suspension in aqueous medium. A control rat and a "blank" rat receive the test compound. One hour later 5-[4-(diphenylmethyl)-1-piperazinylmethyl]-1-methyl-1H-benzimidazole-2-methanol is administered subcutaneously to all rats at the dose of 2.5 mg/kg. […] Five minutes after the injection the intensity of purple-blue coloration (cyanosis) of the extremities is scored as 0 (absent), +(moderate) or ++(intense). Four hours after the intravenous injection of compound 48/80 the rats are decapitated and the stomachs are removed. Subsequently the stomachs are inspected for distension and contents (blood, fluid, food) and thoroughly rinsed. The macroscopic lesions are scored from 0 to + ++, 0 corresponding to complete absence of visible lesions and the highest score corresponding to reddish rough patches covering more than half the glandular area.

[3] = tested on: cyanosis of ears and extremities induced by compound 48/80 in rats; experiment: Cyanosis of ears and extremities induced by compound 48/80 (Test 2); assay type: in vivo, rat (male, Wistar inbred strain); conditions: Rattus norvegicus, po, 5 min; read-out: Cyanosis ED50 (dose at which cyanosis of ears and extremities is completely absent in 50% of the test rats)
Protocol: as §1, §2

[4] = tested on: lesions in the glandular area of the stomach and distension of the stomach induced by compound 48/80 in rats; conditions: rats treated with compound 48/80; cited from earlier work
[5] = tested on: cyanosis of ears and extremities induced by compound 48/80 in rats; conditions: rats treated with compound 48/80; cited from earlier work

| SMILES | Caudal artery ED50 (minimal concentration which reduces the amplitude of the serotonin-induced contraction to at least 50% of its normal value) [1] [ng/mL] | G. lesion ED50 (dose at which distension of the stomach and lesions in the glandular area are completely absent in 50% of the test rats) [2] [mg/kg] | ED50 [3] [mg/kg] | prevention of the abnormal gastric distension (known serotonin antagonists) [4] | prevention of the lesions in the glandular area of the stomach (known serotonin antagonists) [4] | prevention of the cyanosis of ears and extremities (known serotonin antagonists) [5] |
| --- | --- | --- | --- | --- | --- | --- |
| O=C(c1ccc(Cl)cc1)C1CCN(CCn2c(=O)[nH]c3ccccc3c2=O)CC1 | 2.5 | – | – | – | – | – |
| O=C(O)/C=C/C(=O)O.O=C(c1ccc(F)cc1)C1CCN(CCCn2cnc3ccccc3c2=O)CC1 [3-[3-[4-(4-fluorobenzoyl)-1-piperidinyl]propyl]-4(3H)-quinazolinone (E)-2-butenedioate (1:1)] | 5 | 2.5 | – | – | – | – |
| O=C(O)/C=C/C(=O)O.O=C(c1ccc(F)cc1)C1CCN(CCCN2CNc3ccccc3C2=O)CC1 [3-[3-[4-(4-fluorobenzoyl)-1-piperidinyl]propyl]-2,3-dihydro-4-(1H)-quinazolinone (E)-2-butenedioate (1:1)] | 10 | ≥ 2.5 | – | – | – | – |
| O=C(c1ccc(F)cc1)C1CCN(CCn2cnc3ccccc3c2=O)CC1 [3-[2-[4-(4-fluorobenzoyl)-1-piperidinyl]ethyl]-4(3H)-quinazolinone] | 0.6 | 0.31 | 0.31 | – | – | – |
| CN1CCC(=C2c3ccccc3C=Cc3ccccc32)CC1 [cyproheptadine] | – | – | – | prevent completely | prevent completely | prevent completely |
| CN(C)CCCSc1ccccc1NC(=O)/C=C/c1ccccc1 [cinanserin] | – | – | – | prevent completely | prevent completely | prevent completely |
| O=C(c1ccc(F)cc1)C1CCN(CCCn2c(=S)[nH]c3ccccc3c2=O)CC1 [3-[3-[4-(4-fluorobenzoyl)-1-piperidinyl]propyl]-2,3-dihydro-2-thioxo-4(1H)-quinazolinone] | 2 | 2.5 | 0.63 | – | – | – |
| O=C1NC(CCN2CCC(C(=O)c3ccc(F)cc3)CC2)Nc2ccccc21 (stereo not drawn) [2-[2-[4-(4-fluorobenzoyl)-1-piperidinyl]ethyl]-2,3-dihydro-4(1H)-quinazolinone] | 0.7 | 2.5 | 1.25 | – | – | – |
| COc1ccc2c(=O)n(CCN3CCC(C(=O)c4ccc(F)cc4)CC3)c(=O)[nH]c2c1 [3-[2-[4-(4-fluorobenzoyl)-1-piperidinyl]ethyl]-7-methoxy-2,4(1H,3H)-quinazolinedione] | 0.7 | 0.31 | 0.16 | – | – | – |
| Cc1ccc2[nH]c(=O)n(CCN3CCC(C(=O)c4ccc(F)cc4)CC3)c(=O)c2c1 | 1.3 | 2.5 | 0.63 | – | – | – |
| O=C(c1ccc(F)cc1)C1CCN(CCn2c(=O)[nH]c3cc(F)ccc3c2=O)CC1 [7-fluoro-3-[2-[4-(4-fluorobenzoyl)-1-piperidinyl]ethyl]-2,4(1H,3H)-quinazolinedione] | 0.7 | 1.25 | 0.16 | – | – | – |
| O=C(c1ccc(F)cc1)C1CCN(CCCn2c(=O)[nH]c3ccccc3c2=O)CC1 | 1.25 | 2.5 | – | – | – | – |
| O=c1[nH]c2ccccc2c(=O)n1CCN1CCC(C2(c3ccc(F)cc3)OCCO2)CC1 | 11 | 0.31 | 0.16 | – | – | – |
| COc1ccc(C(=O)C2CCN(CCn3c(=O)[nH]c4ccccc4c3=O)CC2)cc1 | 2.5 | – | – | – | – | – |
| O=C(c1ccc(F)cc1)C1CCN(CCn2c(=S)[nH]c3ccccc3c2=O)CC1 [3-[2-[4-(4-fluorobenzoyl)-1-piperidinyl]ethyl]-2,3-dihydro-2-thioxo-4(1H)-quinazolinone] | 0.6 | 0.08 | 0.04 | – | – | – |
| O=C(c1ccc(F)cc1)C1CCN(CCN2C(=O)Nc3ccc(Cl)cc3C2c2ccccc2)CC1 (stereo not drawn) [6-chloro-3-[2-[4-(4-fluorobenzoyl)-1-piperidinyl]ethyl]-3,4-dihydro-4-phenyl-2(1H)-quinazolinone] | – | 0.63 | 0.63 | – | – | – |
| O=C(c1ccc(F)cc1)C1CCN(CCN2C(=O)Nc3ccccc3C2c2ccccc2)CC1 (stereo not drawn) [drawing 34: R^6=C6H5, Alk=(CH2)2, Ar=4-FC6H4, 3-[2-[4-(4-fluorobenzoyl)-1-piperidinyl]ethyl]-3,4-dihydro-4-phenyl-2(1H)-quinazolinone] | 0.6 | 0.08 | 0.08 | – | – | – |
| O=C(c1ccc(F)cc1)C1CCN(CCN2CNc3ccccc3C2=O)CC1 [3-[2-[4-(4-fluorobenzoyl)-1-piperidinyl]ethyl]-2,3-dihydro-4(1H)-quinazolinone] | 5 | ≥ 2.5 | – | – | – | – |
| O=C(c1ccc(F)cc1)C1CCN(CCn2c(=O)[nH]c3ccccc3c2=O)CC1 [3-[2-[4-(4-fluorobenzoyl)-1-piperidinyl]ethyl]-2,4-(1H,3H)-quinazolinedione] | 0.7 | 0.16 | 0.08 | – | – | – |
| O=c1[nH]c2ccccc2c(=O)n1CCN1CCC(C(O)c2ccc(F)cc2)CC1 (stereo not drawn) [3-[2-[4-[(4-fluorophenyl)hydroxymethyl]-1-piperidinyl]ethyl]-2,4(1H,3H)-quinazolinedione] | 20 | 1.25 | 1.25 | – | – | – |
| O=C(c1ccc(F)cc1)C1CCN(CCn2c(=O)[nH]c3cc(Cl)ccc3c2=O)CC1 | 2 | 1.25 | 1.25 | – | – | – |
| Cc1nc2ccccc2c(=O)n1CCN1CCC(C(=O)c2ccc(F)cc2)CC1 [3-[2-[4-(4-fluorobenzoyl)-1-piperidinyl]ethyl]-2-methyl-4(3H)-quinazolinone] | 0.6 | 0.16 | 0.16 | – | – | – |
| Cn1c(=O)n(CCN2CCC(C(=O)c3ccc(F)cc3)CC2)c(=O)c2ccccc21 | 0.7 | 1.25 | 0.16 | – | – | – |
| Nc1cc(F)ccc1C(=O)C1CCN(CCn2c(=O)[nH]c3ccccc3c2=O)CC1 [3-[2-[4-(2-amino-4-fluorobenzoyl)-1-piperidinyl]ethyl]-2,4(1H,3H)-quinazolinedione] | 0.6 | 1.25 | 0.16 | – | – | – |
